Test results from patent US5945438A, “Triazole derivative and pharmaceutical comprising the same as an effective ingredient” (SS Pharmaceutical Co., Ltd., priority 1995, dated 1999).
Values after ≈ are worked out from the molar mass of the structure shown. Read-outs that look alike come from different tables or passages of the source.

Experiments:
[1] = system: A. fumigatus IFM 40808; experiment: In vitro antifungal activity against Aspergillus fumigatus; format: cell-based; conditions: RPMI MEDIUM 1640, pH 7, 3.0×10^4 cells/ml, 35° C.; for MIC: Aspergillus fumigatus, read-out: Minimum inhibitory concentration
Procedure: In vitro antifungal activity against Aspergillus fumigatus
Incubation was then conducted at 35° C. for 24 hours.

[2] = system: C. albicans ATCC 44859; experiment: In vitro antifungal activity against Candida albicans; format: cell-based; conditions: C. albicans controlled to a yeast-type (no hyphal growth), Eagle's MEM medium with 10% serum, 2.0×10^4 cells/ml, 37° C.; for MIC: Candida albicans, read-out: Minimum inhibitory concentration
Procedure: In vitro antifungal activity against Candida albicans
Incubation was then conducted at 37° C. for 20 hours using a CO2 gas incubator.

[3] = IFM40808, 24 h, pH 7, growth of about 75% of hyphae inhibited
[4] = growth of about 75% of hyphae inhibited, 24 hours

Structure (SMILES) | MIC [1, 3] [µg/mL] | MIC ([2]; ATCC44859, 20 h) [µg/mL] | Minimum inhibitory concentration ([2]; 20 hours) [µg/mL] | other results
C[S+]([O-])C(F)(F)C(O)(Cn1cncn1)c1ccc(F)cc1F (single isomer, unassigned) [Compound(1b-1B), 3,3-difluoro-2-(2',4'-difluorophenyl)-3-methylsulfinyl-1-(1H-1,2,4-triazol-1-yl)propan-2-ol] | – | – | 0.5 (≈ 1.48 µM) | Minimum inhibitory concentration [1, 4]: > 64 µg/mL
CS(=O)(=O)C(F)(F)C(O)(Cn1cncn1)c1ccc(F)cc1F (single isomer, unassigned; (-)) [(-)-Compound(1c-1), (-)-3,3-difluoro-2-(2',4'-difluorophenyl)-3-methylsulfonyl-1-(1H-1,2,4-triazol-1-yl)propan-2-ol] | – | – | 0.0313 (≈ 0.0886 µM) | Minimum inhibitory concentration [1, 4]: 16 µg/mL (≈ 45.3 µM)
CS(=O)(=O)C(F)(F)C(O)(Cn1cncn1)c1ccc(F)cc1F (single isomer, unassigned; (+)) [(+)-Compound(1c-1), (+)-3,3-difluoro-2-(2',4'-difluorophenyl)-3-methylsulfonyl-1-(1H-1,2,4-triazol-1-yl)propan-2-ol] | – | – | > 1 | Minimum inhibitory concentration [1, 4]: > 64 µg/mL
CS(=O)(=O)C(F)(F)C(O)(Cn1cncn1)c1ccc(C(F)(F)F)cc1 (single isomer, unassigned; (-)) [(-)-Compound(1c-4), (-)-3,3-difluoro-3-methylsulfonyl-1-(1H-1,2,4-triazol-1-yl)-2-(4'-(trifluoromethyl)phenyl]propan-2-ol] | – | – | 0.0625 (≈ 0.162 µM) | Minimum inhibitory concentration [1, 4]: > 64 µg/mL
CS(=O)(=O)C(F)(F)C(O)(Cn1cncn1)c1ccc(F)cc1 (single isomer, unassigned; (+)) [(+)-Compound(1c-2), (+)-3,3-difluoro-2-(4'-fluorophenyl)-3-methylsulfonyl-1-(1H-1,2,4-triazol-1-yl)propan-2-ol] | > 64 | – | > 1 | –
CS(=O)(=O)C(F)(F)C(O)(Cn1cncn1)c1ccc(Cl)cc1Cl (single isomer, unassigned; (+)) [(+)-Compound(1c-3), (+)-2-(2',4'-dichlorophenyl)-3,3-difluoro-3-methylsulfonyl-1-(1H-1,2,4-triazol-1-yl)propan-2-ol] | – | – | > 1 | Minimum inhibitory concentration [1, 4]: > 64 µg/mL
OC(Cn1cncn1)(Cn1cncn1)c1ccc(F)cc1F [Fluconazole, reference compound] | – | – | – | MIC ([1]; IFM40808, growth of about 75% of hyphae inhibited, 24 hours): > 64 µg/mL; MIC ([2]; ATCC44859, 20 hours): 0.25 µg/mL (≈ 0.816 µM)
CS(=O)(=O)C(F)(F)C(O)(Cn1cncn1)c1ccc(C(F)(F)F)cc1 (single isomer, unassigned; (+)) [(+)-Compound(1c-4), (+)-3,3-difluoro-3-methylsulfonyl-1-(1H-1,2,4-triazol-1-yl)-2-[4'-(trifluoromethyl)phenyl]propan-2-ol] | > 64 | – | > 1 | –
CS(=O)(=O)C(F)(F)C(O)(Cn1cncn1)c1ccc(F)cc1 (single isomer, unassigned; (-)) [(-)-Compound(1c-2), (-)-3,3-difluoro-2-(4'-fluorophenyl)-3-methylsulfonyl-1-(1H-1,2,4-triazol-1-yl)propan-2-ol] | – | – | 0.0625 (≈ 0.186 µM) | Minimum inhibitory concentration [1, 4]: 64 µg/mL (≈ 191 µM)

Now from value to molecule, other results behind:

MIC [1, 3] [µg/mL] | MIC ([2]; ATCC44859, 20 h) [µg/mL] | Structure (SMILES) | Minimum inhibitory concentration ([2]; 20 hours) [µg/mL] | other results
32 (≈ 82.9 µM) | 0.0313 (≈ 0.081 µM) | CS(=O)(=O)C(F)(F)C(O)(Cn1cncn1)c1ccc(Cl)cc1Cl (stereo not drawn) [Compound(1c-3), 2-(2',4'-dichlorophenyl)-3,3-difluoro-3-methylsulfonyl-1-(1H-1,2,4-triazol-1-yl)propan-2-ol] | – | –
16 (≈ 52.8 µM) | 0.0625 (≈ 0.206 µM) | CSC(F)(F)C(O)(Cn1cncn1)c1ccc(F)cc1 (stereo not drawn) [Compound(1a-2), 3,3-difluoro-2-(4'-fluorophenyl)-3-methylthio-1-(1H-1,2,4-triazol-1-yl)propan-2-ol] | – | –
> 64 | 0.25 (≈ 0.746 µM) | CS(=O)(=O)C(F)(F)C(O)(Cn1cncn1)c1ccc(F)cc1 (racemic) [Compound(1c-2), 3,3-difluoro-2-(4'-fluorophenyl)-3-methylsulfonyl-1-(1H-1,2,4-triazol-1-yl)propan-2-ol] | – | –
> 64 | 0.125 (≈ 0.324 µM) | CS(=O)(=O)C(F)(F)C(O)(Cn1cncn1)c1ccc(C(F)(F)F)cc1 (racemic) [Compound(1c-4), 3,3-difluoro-3-methylsulfonyl-1-(1H-1,2,4-triazol-1-yl)-2-[4'-(trifluoromethyl)phenyl]propan-2-ol] | – | –
16 (≈ 56.1 µM) | 0.125 (≈ 0.438 µM) | CSC(F)(F)C(O)(Cn1cncn1)c1ccccc1 (stereo not drawn) [Compound(1a-5), 3,3-difluoro-3-methylthio-2-phenyl-1-(1H-1,2,4-triazol-1-yl)propan-2-ol] | – | –
32 (≈ 90.6 µM) | 0.0625 (≈ 0.177 µM) | CS(=O)(=O)C(F)(F)C(O)(Cn1cncn1)c1ccc(F)cc1F (stereo not drawn) [Compound (1c-1), 3,3-difluoro-2-(2',4'-difluorophenyl)-3-methylsulfonyl-1-(1H-1,2,4-triazol-1-yl)propan-2-ol] | – | –
64 (≈ 190 µM) | – | C[S+]([O-])C(F)(F)C(O)(Cn1cncn1)c1ccc(F)cc1F (single isomer, unassigned) [Compound(1b-1A), 3,3-difluoro-2-(2',4'-difluorophenyl)-3-methylsulfinyl-1-(1H-1,2,4-triazol-1-yl)propan-2-ol] | 0.0625 (≈ 0.185 µM) | –
> 64 | 0.5 (≈ 1.58 µM) | CS(=O)(=O)C(F)(F)C(O)(Cn1cncn1)c1ccccc1 (stereo not drawn) [Compound(1c-5), 3,3-difluoro-3-methylsulfonyl-2-phenyl-1-(1H-1,2,4-triazol-1-yl)propan-2-ol] | – | –
32 (≈ 82.9 µM) | – | CS(=O)(=O)C(F)(F)C(O)(Cn1cncn1)c1ccc(Cl)cc1Cl (single isomer, unassigned; (-)) [(-)-Compound(1c-3), (-)-2-(2',4'-dichlorophenyl)-3,3-difluoro-3-methylsulfonyl-1-(1H-1,2,4-triazol-1-yl)propan-2-ol] | 0.0078 (≈ 0.0202 µM) | –
2 (≈ 5.65 µM) | 0.0039 (≈ 0.011 µM) | CSC(F)(F)C(O)(Cn1cncn1)c1ccc(Cl)cc1Cl (racemic) [Compound(1a-3), 2-(2',4'-dichlorophenyl)-3,3-difluoro-3-methylthio-1-(1H-1,2,4-triazol-1-yl)propan-2-ol] | – | –
4 (≈ 12.4 µM) | 0.0078 (≈ 0.0243 µM) | CSC(F)(F)C(O)(Cn1cncn1)c1ccc(F)cc1F (racemic) [Compound(1a-1), 3,3-difluoro-2-(2',4'-difluorophenyl)-3-methylthio-1-(1H-1,2,4-triazol-1-yl)propan-2-ol] | – | –
16 (≈ 45.3 µM) | 0.0156 (≈ 0.0442 µM) | CSC(F)(F)C(O)(Cn1cncn1)c1ccc(C(F)(F)F)cc1 (stereo not drawn) [Compound(1a-4), 3,3-difluoro-3-methylthio-1-(1H-1,2,4-triazol-1-yl)-2-[4'-(trifluoromethyl)phenyl]propan-2-ol] | – | –
